Data taken from patent publication US4318858A, “Thioethylamide derivatives” (Shionogi & Co., Ltd., priority 1979, dated 1982).
Like-named read-outs stand apart in the source and are kept apart here.

Columns and labels:
[1] = biological target: T1, histamine H2 receptor (Cavia porcellus, UniProt P47747); experiment: inhibition of the palpitation number of guinea pig's enucleated atrium (histamine antagonism); format: cell-based; details: compounds (I) as the oxalates
T1 construct: guinea pig's enucleated atrium; from tissue; host or cells: guinea pig isolated ("enucleated") atrium
From the text: The pA2 value is defined as a negative logarithm of the concentratio
of the compound (I) required to shift the doseresponse of histamine to th
high concentration side by 2fold. [Ariens, E.J., Molecular Pharmacology,
(1964), Academic Press, New York and London].

[2] = system: gastric acid secretion; experiment: gastric acid secretion inhibiting activity in Donryu male rats (pH value in the stomach); format: in vivo; details: Rattus norvegicus, oxalate
[3] = acute toxicity in mice; details: mouse, in vivo, oxalate

T1 sequence (P47747 whole entry): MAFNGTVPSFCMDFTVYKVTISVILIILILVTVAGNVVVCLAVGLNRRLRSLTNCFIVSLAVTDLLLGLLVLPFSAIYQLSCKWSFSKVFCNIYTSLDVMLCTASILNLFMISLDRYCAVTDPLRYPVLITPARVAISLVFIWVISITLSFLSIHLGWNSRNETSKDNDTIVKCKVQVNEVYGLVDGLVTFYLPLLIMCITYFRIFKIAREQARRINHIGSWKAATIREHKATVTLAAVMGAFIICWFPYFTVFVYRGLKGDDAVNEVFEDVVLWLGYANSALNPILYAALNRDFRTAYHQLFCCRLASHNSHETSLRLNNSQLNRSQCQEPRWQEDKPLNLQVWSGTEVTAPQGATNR

Structure (SMILES) | Kb [1] [nM] | other results
CC=CC=CC(=O)NCCSCc1ccc(CN(C)C)o1 [Test No. 5] | 1910 | 
CN(C)Cc1ccc(CSCCNC(=O)c2ccc(S(N)(=O)=O)cc2)o1 [Test No. 7] | 151 | 
CN(C)Cc1ccc(CSCCNC=O)o1 [Test No. 6] | 1860 | 
CN(C)Cc1ccc(CSCCNC(=O)c2ccc(S(N)(=O)=O)cc2)o1.O=C(O)C(=O)O [N-[2-[[(5-dimethylaminomethyl-2-furyl)-methyl]thio]ethyl]-4-sulfamoylbenzamide oxalate] |  | ED50 [2]: 2.54 mg/kg; LD50 ([3]; iv, read-out: acute toxicity LD50 i.v.): 150 mg/kg; LD50 ([3]; po, read-out: acute toxicity LD50 p.o.): > 1000 mg/kg
COC(=O)c1ccc(C(=O)NCCSCc2ccc(CN3CCCC3)s2)cc1 | 550 | 
COC(=O)c1ccc(C(=O)NCCSCc2ccc(CN(C)C)o2)cc1 [Test No. 4] | 468 | 

Second part, led by results:

Kb [1] [nM] | Structure (SMILES) | other results
2190 | Cc1cc(CSCCNC(=O)c2ccc(S(N)(=O)=O)cc2)sc1CN1CCCC1 [Test No. 10] | 
851 | Cc1cc(CSCCNC(=O)c2ccc([N+](=O)[O-])cc2)oc1CN1CCCC1 [Test No. 12] | 
912 | O=C(NCCSCc1ccc(CN2CCCC2)s1)c1ccc([N+](=O)[O-])cc1 [Test No. 9] | 
501 | CC(C)c1cc(CN2CCCC2)sc1CSCCNC(=O)c1cccnc1 [Test No. 11] | 
